Measured values from patent publication US4243678A, “Acylhydrocarbylaminoalkanoic acids, compositions and uses” (Byk Gulden Lomberg Chemische Fabrik GmbH, priority 1977, dated 1981).
Read-outs that look alike come from different tables or passages of the source.

Assays:
bile secretion = test: Influence on bile secretion (choleresis) of the narcotized rat; assay type: in vivo, rat (male Sprague-Dawley); settings: 0.5 h; narcotized rat, i.d.; liquid volume, 30 min fraction; Table II; read-out: ED50 bile secretion (dose which brings about an increase in the bile secretion by a maximum of 50%)
Text: (§1) Male Sprague-Dawley rats (body weight from 250 to 300 g) are narcotized with 1.2 g/kg urethane i.m. Then the abdominal cavity is opened medially, the bile duct is ligatured shortly above the place where it leads into the duodenum and also near to the hepatic duct, and both sections are catheterized towards the liver.
(§2) As in the rat all the pancreatic ducts lead out into the central section of the bile duct; it is possible in this way to discharge the pancreatic secretion separately from the distal (ligatured) section and the bile separately from the proximal section of the bile duct.
(§3) The quantities of pancreatic juice and bile juice obtained are measured at intervals of 30 minutes over a period from 2 hours before to 3 hours after the intraduodenal (V. jugularis externa) administration of the compounds to be tested (quantity of liquid administered 5 ml/kg).
(§4) The body temperature of the animals is maintained at 36° to 38° C. by means of electric blankets and radiation; the temperature is monitored rectally.
(§5) The liquid volumes of the 30-minute fractions after the administration of the substance are related in each case to the quantity of bile or pancreatic juice secreted prior to the application of the substance (=100%, mean of the last two measurements). The maximum percentage increase in the pancreatic or bile secretion is represented in dependence upon dose, and from this the ED50 is determined by interpolation.

[1] = as above; assay type: in vivo, rat (male Sprague-Dawley); settings: in vivo; LD50 mouse i.p. / ED50 rat i.d.; Table II; read-out: TQ (LD50/ED50), bile secretion
Text: as §1, §2, §3, §4, §5

liver damage by CCl4 = test: Antihepatotoxic effect: duration of hexobarbital sleep of the rat after liver damage by CCl4; settings: Rattus norvegicus, po
Description: (§6) The compounds to be tested are administered 1 hour prior to the administration of CCl4 orally in a liquid volume of 10 ml/kg.
(§7) The antihepatotoxic effect of the compounds to be tested (sodium salts in aqueous solution) is determined by the reduction of the prolongation of sleeping period caused by the CCl4 liver cell damage in the groups treated, as compared with the prolongation of the sleeping period of the CCl4 control group (=100%). […]

[2] = as above; settings: rat, in vivo
Description: as §6, §7

mouse = test: Determination of toxicity (lethal action on the mouse after intraperitoneal application); assay type: in vivo; settings: 20160 min
Description: (§8) The toxicity investigations are carried out on female NMRI mice (body weight 22 to 26 g). The animals (5 animals per dose) are given food and water ad lib. Different doses of the substances are administered intraperitoneally. The duration of observation is 14 days. The LD50, i.e. the dose at which 50% of the animals die, is determined graphically from the dose/effect curve.

[3] = as above; assay type: in vivo; settings: in vivo, ip
Description: as §8

stomach ulcer = test: Antiulcerogenic (stomach-protective) action, pylorus ligature and acetylsalicylic acid; assay type: in vivo, rat (female); settings: 4 h; rat, intraduodenally; Table IV; read-out: ED50 antiulcerogenic action (dose which reduces the mean ulcer index by 50%)
Description: (§9) The ulcer provocation is carried out on rats which have been made to fast for 24 hours (female, 180 to 200 g) by ligature of the pylorus (under ether narcosis) and the oral application of 100 mg/10 ml/kg acetylsalicylic acid. The administration of the substances was carried out intraduodenally (2.5 ml/kg) immediately after the ligature of the pylorus. The closure of the wound was carried out by means of Michel clamps. 4 hours after this, the animals were autopsied (while inebriated with ether) by dislocation of the atlas, and the stomach was resected. The stomach, opened longitudinally, is fixed on a cork board and, using a stereomicroscope with an enlargement of 10×, the number and size (=diameter) of any ulcers present were determined. The product of the degree of severity (according to the following scale of points) and the number of ulcers was used as the individual ulcer index.
(§10) As a measure of antiulcerogenic effect the reduction in the mean ulcer index of each treated group, as compared with that of the control group (=100%), was used.

[4] = as above; assay type: in vivo, rat (female); settings: in vivo; LD50 mouse i.p. / ED50 rat i.d.; Table IV; read-out: TQ (LD50/ED50), antiulcerogenic action
Description: as §9, §10

[5] = Influence on pancreatic secretion of the narcotized rat; assay type: in vivo, rat (male Sprague-Dawley); settings: in vivo, LD50 mouse i.p. / ED50 rat i.d.
pancreatic secretion = test: as above; assay type: in vivo, rat (male Sprague-Dawley); settings: 0.5 h, narcotized rat, i.d., liquid volume
[6] = system: glucose formation from lactate and pyruvate in isolated perfused liver; test: Inhibition of the formation of glucose from lactate and pyruvate in the isolated perfused rat liver; parameters: species or system rat (male Sprague-Dawley); settings: Table XIII
Description: For this purpose young male Sprague-Dawley rats (160 to 200 g) are used. The rats are kept in cages of up to 5 animals in a temperature-controlled room (23° C.) with a fixed day/night rhythm (12/12 hours).
Food is withheld from the animals for from 20 to 22 hours prior to the operation. They are allowed to take water ad lib. The operation and the perfusion of the liver are carried out using the technique of R. Scholz et al. [Eur. J. Biochem. 38 (1973) 64 to 72]. The perfusion liquid used is Krebs-Henseleit bicarbonate buffer (pH 7.4), which is saturated with an oxygen/carbon dioxide mixture (95/5) and contains 1.6 mmol/liter of L-lactate and 0.2 mmol/liter of pyruvate. The perfusion liquid is pumped into the liver via a cannula inserted into the portal vein. The effluent perfusion liquid is collected via a cannula inserted into the Vena cava. The liver is perfused for about 2 hours. The test compounds are infused for 16 minutes each from the 32nd to the […] after the perfusion in increasing concentrations (0.02 to 1.00 mmol/liter).
Samples of the effluent perfusion liquid are collected at one-minute intervals and analyzed for glucose, lactate and pyruvate (using standard enzymatic methods). The percentages shown in Table VIII relate to the condition occurring before and after the administration of the compounds, the changes caused solely by lactate and pyruvate being set as being equal to 100%.

C#CC(C)(C)N(CCCC(=O)O)C(=O)c1ccc(Cl)cc1 [Serial No. 3, N-(p-chloro)benzoyl-4-[(2-methyl-3-butyn-2-yl)amino]butyric acid]
ED50 (bile secretion): 25 mg/kg
selectivity ratio [1]: > 40
ED50 (liver damage by CCl4; read-out: ED50 antihepatotoxic effect (dose which shortens the hexobarbital narcosis by 50%)): 100 mg/kg
selectivity ratio ([2]; TQ (LD50/ED50), antihepatotoxic effect, LD50 mouse i.p. / ED50 rat p.o., Table III): > 10
LD50 (mouse; mouse, i.p., Table III): > 1000 mg/kg
LD50 at 336 h ([3]; mouse, Table II): > 1000 mg/kg

COc1ccc(Cl)cc1C(=O)N(CCCCCC(=O)O)c1ccccc1-c1ccccc1 [Serial No. 30, 6-[5-chloro-2-methoxy-N-(biphenyl-2-yl)benzamido]caproic acid]
ED50 (stomach ulcer): 10 mg/kg
selectivity ratio [4]: > 20
selectivity ratio ([5]; Table VII, read-out: TQ [LD50/ED50], pancreatic secretion): > 200
ED50 (pancreatic secretion; 30 min fraction, Table VII, read-out: ED50 pancreatic secretion (dose which brings about an increase in pancreatic secretion of a maximum of 50%)): < 1 mg/kg
ED25 (liver damage by CCl4; read-out: ED25 antihepatotoxic effect (shortens hexobarbital narcosis by 25%)): 10 mg/kg
selectivity ratio ([2]; TQ LD50/ED25, antihepatotoxic effect, LD50 mouse i.p. / ED25 rat p.o., Table V): > 20
LD50 (mouse; mouse i.p., Table V): > 200 mg/kg
LD50 (mouse; mouse i.p., Table VII): > 200 mg/kg
LD50 at 336 h ([3]; mouse, Table IV): > 200 mg/kg

CC(C)C(=O)N(CCCC(=O)O)C1CCCc2ccccc21 (stereo not drawn) [Serial No. 50, 4-[N-(1,2,3,4-tetrahydro-1-naphthyl)isobutyramido]butyric acid]
selectivity ratio ([5]; Table X, read-out: TQ LD50/ED50, pancreatic secretion): ≥ 66.7
ED50 (pancreatic secretion; 30 minute fraction, Table X, read-out: ED50 pancreatic secretion (dose which brings about an increase in pancreatic secretion by a maximum of 50%)): ~3 mg/kg
LD50 (i.p.) (mouse; mouse, i.p., Table XIII): > 200 mg/kg
LD50 at 336 h ([3]; mouse i.p., Table X): > 200 mg/kg
Glucose formation, % change ([6]; 0.2 mmol/liter in the perfusate, isolated perfused liver of fasting rats): -33%
ED50 inhibition of formation of glucose from lactate and pyruvate ([6]; from 4 concentrations, 0.02 to 1.00 mmol/liter): 97 µg/mL
